Results from patent US6479524B1, “Substituted aryl and heteroaryl derivatives, their production and their use as medicines” (Boehringer Ingelheim Pharma KG, priority 1998, dated 2002).

Test system: human citrated plasma
Experiment: aPTT time prolongation (clotting of human citrated plasma, Biomatic B10 coagulometer)
Format: biochemical
Details: effective concentration at which the aPTT time is double compared with the control, 37° C.
Protocol: were investigated for their effect on prolonging the aPTT time as follows:
plasma, from human citrated blood.
Diethylbarbiturate acetate buffer, Behring Werke, Marburg (ORWH 60/61),
Biomatic B10 coagulometer, Desaga, Wiesloch.
The aPTT time was determined using a Biomatic B10 coagulometer made by Messrs. Sarstedt.
The test substance was placed in the test tubes prescribed by the manufacturer with 0.1 ml of human citrated plasma and 0.1 ml of PTT reagent. The mixture was incubated for three minutes at 37° C. The clotting reaction was started by the addition of 0.1 ml of calcium solution. The time is measured using the apparatus from the addition of the calcium solution up to the clotting of the mixture. Mixtures to which 0.1 ml of DBA buffer were added were used as the controls.

Q: With `Cc1cc(N(C(=O)CC(=O)O)C(C)C)c(C)cc1C#CCNc1ccc(C(=N)N)cc1` [I, 4-{3-[2,5-dimethyl-4-(N-isopropyl-N-hydroxycarbonylmethyl-carbonyl-amino)-phenyl]-propargylamino}-benzamidine] as the molecule, how does the “aPTT time (ED200 in μM)” value read?
A: 0.45 µM

Q: Which “aPTT time (ED200 in μM)” value does the source give for `CCN(CCC(=O)OC)C(=O)c1cc(C)c(C#CCNc2ccc(C(=N)N)cc2)cc1C` [G, 4-{3-[2,5-dimethyl-4-(N-(2-methoxycarbonyl-ethyl)-N-ethyl-carbonylamino)-phenyl]-propargylamino}benzamidine] here?
A: 0.29 µM

Q: How did the “aPTT time (ED200 in μM)” value turn out when `Cc1cc(C(=O)N2CCCC2C)c(C)cc1C#CCNc1ccc(C(=N)N)cc1` (racemic) [B, rac-4-{3-[2,5-dimethyl-4-(2-methyl-pyrrolidinocarbonyl)-phenyl]-propargylamino}benzamidine] was run?
A: 0.45 µM

Q: Which “aPTT time (ED200 in μM)” value does the source give for `Cc1cc(NC(=O)N(CC(=O)O)C(C)C)c(C)cc1C#CCNc1ccc(C(=N)N)cc1` [H, 4-{3-[2,5-dimethyl-4-(N-isopropyl-N-hydroxycarbonylmethyl-aminocarbonyl-amino)-phenyl]-propargylamino}-benzamidine] here?
A: 0.20 µM

Q: With `Cc1cc(C#CCNc2ccc(C(=N)N)cc2)ccc1C(=O)N1CCCC1` [F, 4-[3-(3-methyl-4-pyrrolidinocarbonyl-phenyl)-propargyl-amino]-benzamidine] as the molecule, how does the “aPTT time (ED200 in μM)” value read?
A: 0.54 µM

Q: How did the “aPTT time (ED200 in μM)” value turn out when `Cc1cc(C(=O)C(C)C)c(C)cc1C#CCNc1ccc(C(=N)N)cc1` [C, 4-[3-(2,5-dimethyl-4-isopropylcarbonyl-phenyl)propargyl-amino]benzamidine] was run?
A: 0.97 µM

Q: Which “aPTT time (ED200 in μM)” value does the source give for `CCOC(=O)Cc1cc(C#CCNc2ccc(C(=N)N)cc2)c(C)cc1C(=O)N1CCCC1C` (racemic) [A, rac-4-{3-[5-ethoxycarbonylmethyl-2-methyl-4-(2-methyl-pyrrolidinocarbonyl)-phenyl]-propargylamino}benzamidine] here?
A: 0.23 µM

Q: With `Cc1cc(C(=O)N(C)c2ccccn2)c(C)cc1CCCNc1ccc(C(=N)N)cc1` [E, 4-{3-[2,5-dimethyl-4-(N-methyl-N-pyridin-2-yl-aminocarbonyl)-phenyl]prop-1-ylamino}benzamidine] as the molecule, how does the “aPTT time (ED200 in μM)” value read?
A: 0.69 µM

Q: Which “aPTT time (ED200 in μM)” value does the source give for `Cc1cc(C(=O)N(C)c2ccccn2)c(C)cc1C#CCNc1ccc(C(=N)N)cc1` [D, 4-{3-[2,5-dimethyl-4-(N-methyl-N-pyridin-2-yl-aminocarbonyl)-phenyl]propargylamino}benzamidine] here?
A: 0.23 µM
